Measurements reported in PubChem BioAssay AID1963853 (Molecular Pharmacology Branch, DTP, NCI, 2024).

Tested on: 266295-075-R-J1-PDC spheroid viability
Assay: Anticancer human tumor 266295-075-R-J1-PDC patient-derived head and neck squamous carcinoma cell line growth inhibition [POLQ]
Conditions: spheroids with HUVEC and MSC; for IC50: curve of first compound; for viability, T/C: stronger effect = lower value; active means viability on the fitted dose curve at most 10% of control; inactive means the rest
Method in brief: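 Growth inhibition in 3D: complex spheroids (tumor PDC, HUVEC, MSC) treated with POLQ inhibitor combinations; where Cmax unknown, highest tested concentration 10 microM, except SN-38 at 1 microM.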

[1] = second compound 0.0316 µM, first compound 0.0316 µM
[2] = second compound 0.0316 µM, first compound 0.1 µM
[3] = second compound 0.0316 µM, first compound 0.316 µM
[4] = second compound 0.0316 µM, first compound 1 µM
[5] = second compound 0.0316 µM, first compound 3.16 µM
[6] = second compound 0.0316 µM, first compound 10 µM
[7] = second compound 0.1 µM, first compound 0.0316 µM
[8] = second compound 0.1 µM, first compound 0.1 µM
[9] = second compound 0.1 µM, first compound 0.316 µM
[10] = second compound 0.1 µM, first compound 1 µM
[11] = second compound 0.1 µM, first compound 3.16 µM
[12] = second compound 0.1 µM, first compound 10 µM
[13] = second compound 0.316 µM, first compound 0.0316 µM
[14] = second compound 0.316 µM, first compound 0.1 µM
[15] = second compound 0.316 µM, first compound 0.316 µM
[16] = second compound 0.316 µM, first compound 1 µM
[17] = second compound 0.316 µM, first compound 3.16 µM
[18] = second compound 0.316 µM, first compound 10 µM
[19] = second compound 1 µM, first compound 0.0316 µM
[20] = second compound 1 µM, first compound 0.1 µM
[21] = second compound 1 µM, first compound 0.316 µM
[22] = second compound 1 µM, first compound 1 µM
[23] = second compound 1 µM, first compound 3.16 µM
[24] = second compound 1 µM, first compound 10 µM
[25] = second compound 3.16 µM, first compound 0.0316 µM
[26] = second compound 3.16 µM, first compound 0.1 µM
[27] = second compound 3.16 µM, first compound 0.316 µM
[28] = second compound 3.16 µM, first compound 1 µM
[29] = second compound 3.16 µM, first compound 3.16 µM
[30] = second compound 3.16 µM, first compound 10 µM
[31] = second compound 10 µM, first compound 0.0316 µM
[32] = second compound 10 µM, first compound 0.1 µM
[33] = second compound 10 µM, first compound 0.316 µM
[34] = second compound 10 µM, first compound 1 µM
[35] = second compound 10 µM, first compound 3.16 µM
[36] = second compound 10 µM, first compound 10 µM
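Further: spheroids exposed to compounds for seven days before readout.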

CNCc1ccc(-c2[nH]c3cc(F)cc4c3c2CCNC4=O)cc1 + Nc1ccc(C#CCN(C(=O)Cc2ncc(C(F)(F)F)cc2C(F)(F)F)c2ccc(F)cc2)nn1
> 10 µM: IC50 (second compound 0.0316 µM) | IC50 (second compound 0.1 µM) | IC50 (second compound 0.316 µM) | IC50 (second compound 1 µM) | IC50 (second compound 3.16 µM) | IC50 (second compound 10 µM)
inactive: viability, T/C [1] 98.8% | viability, T/C [2] 89.6% | viability, T/C [3] 93.5% | viability, T/C [4] 103% | viability, T/C [5] 101% | viability, T/C [6] 113% | viability, T/C [7] 116% | viability, T/C [8] 97% | viability, T/C [9] 95.6% | viability, T/C [10] 83.2% | viability, T/C [11] 102% | viability, T/C [12] 111% | viability, T/C [13] 102% | viability, T/C [14] 107% | viability, T/C [15] 101% | viability, T/C [16] 87.2% | viability, T/C [17] 98.4% | viability, T/C [18] 70.2% | viability, T/C [19] 93.3% | viability, T/C [20] 86.9% | viability, T/C [21] 123% | viability, T/C [22] 87.2% | viability, T/C [23] 111% | viability, T/C [24] 119% | viability, T/C [25] 88.1% | viability, T/C [26] 97.9% | viability, T/C [27] 81.9% | viability, T/C [28] 97.8% | viability, T/C [29] 100% | viability, T/C [30] 105% | viability, T/C [31] 92.8% | viability, T/C [32] 94.8% | viability, T/C [33] 99.5% | viability, T/C [34] 91% | viability, T/C [35] 87% | viability, T/C [36] 131%

C=CC(=O)N1CCN(c2nc(=O)n(-c3c(C)ccnc3C(C)C)c3nc(-c4c(O)cccc4F)c(F)cc23)C(C)C1 (stereo unspecified) + Cc1cccc(N(C)C(=O)C2C(O)CCN2c2nc(C)cc(C(F)(F)F)c2C#N)c1
inactive: viability, T/C [1] 95.2% | viability, T/C [2] 89.3% | viability, T/C [3] 97% | viability, T/C [4] 110% | viability, T/C [5] 140% | viability, T/C [6] 126% | viability, T/C [7] 91.5% | viability, T/C [8] 92.7% | viability, T/C [9] 96.2% | viability, T/C [10] 115% | viability, T/C [11] 123% | viability, T/C [12] 131% | viability, T/C [13] 93.6% | viability, T/C [14] 116% | viability, T/C [15] 100% | viability, T/C [16] 126% | viability, T/C [17] 116% | viability, T/C [18] 121% | viability, T/C [19] 91.6% | viability, T/C [20] 108% | viability, T/C [21] 112% | viability, T/C [22] 103% | viability, T/C [23] 125% | viability, T/C [24] 130% | viability, T/C [25] 99.5% | viability, T/C [26] 105% | viability, T/C [27] 118% | viability, T/C [28] 133% | viability, T/C [29] 126% | viability, T/C [30] 116% | viability, T/C [31] 117% | viability, T/C [32] 108% | viability, T/C [33] 128% | viability, T/C [34] 120% | viability, T/C [35] 132% | viability, T/C [36] 105%
> 10 µM: IC50 (second compound 0.0316 µM) | IC50 (second compound 0.1 µM) | IC50 (second compound 0.316 µM) | IC50 (second compound 1 µM) | IC50 (second compound 3.16 µM) | IC50 (second compound 10 µM)

CC1COCCN1c1cc(-c2ccnn2C)c2ccnc(-c3ccn[nH]3)c2n1 (stereo unspecified) + Nc1ccc(C#CCN(C(=O)Cc2ncc(C(F)(F)F)cc2C(F)(F)F)c2ccc(F)cc2)nn1
inactive: viability, T/C [1] 92.3% | viability, T/C [2] 73.2% | viability, T/C [3] 78% | viability, T/C [4] 63.6% | viability, T/C [5] 46.9% | viability, T/C [6] 36.5% | viability, T/C [7] 92.1% | viability, T/C [8] 84.4% | viability, T/C [9] 69.1% | viability, T/C [10] 57.5% | viability, T/C [11] 52.2% | viability, T/C [12] 34.3% | viability, T/C [13] 90.2% | viability, T/C [14] 86.1% | viability, T/C [15] 44.8% | viability, T/C [16] 55.6% | viability, T/C [17] 42.3% | viability, T/C [18] 42.5% | viability, T/C [19] 85% | viability, T/C [20] 76.3% | viability, T/C [21] 59.1% | viability, T/C [22] 52.1% | viability, T/C [23] 46.2% | viability, T/C [24] 26.8% | viability, T/C [25] 103% | viability, T/C [26] 83.8% | viability, T/C [27] 74% | viability, T/C [28] 60.7% | viability, T/C [29] 43.1% | viability, T/C [30] 30.7% | viability, T/C [31] 97.2% | viability, T/C [32] 91.9% | viability, T/C [33] 69.5% | viability, T/C [34] 54.7% | viability, T/C [35] 35.8% | viability, T/C [36] 35.6%
1.29 µM: IC50 (second compound 1 µM)
1.14 µM: IC50 (second compound 10 µM)
0.284 µM: IC50 (second compound 0.316 µM)
2.02 µM: IC50 (second compound 3.16 µM)
2.55 µM: IC50 (second compound 0.1 µM)
3.04 µM: IC50 (second compound 0.0316 µM)
